In patent publication US12583866B2, “Pyrido[2,3-b][1,4]oxazines or tetrahydropyrido[2,3-b][1,4]oxazepines as IAP antagonists” (BEIGENE, LTD., priority 2020, dated 2026):

What was measured:
[1] = target: T1, recombinant human XIAP-BIR3 protein (Homo sapiens, UniProt P98170); assay: Recombinant human XIAP-BIR3 biochemical assay (HTRF, peptide displacement); conditions: 3.7 nM XIAP-BIR3, 7.6 nM AbuRPF-K(5-Fam)-NH2 peptide, read-out: Protein binding IC50 (nM) XIAP
T1 construct: recombinant human XIAP-BIR3 protein; purchased Reaction biology APT-11-374
Summary of the method: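 3.7 nM His-tagged XIAP-BIR3 was preincubated 1 h RT with compound (top 10 µM, 4-fold, 10 points) in 20 mM HEPES pH 7.5, 50 mM NaCl, 0.005% Tween-20, 1 mM DTT. 7.6 nM AbuRPF-K(5-Fam)-NH2 peptide was then added, followed by anti-6His Tb cryptate, 1 h each. HTRF 520/490 nm ratio; four-parameter logistic IC50.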

[2] = target: T2, recombinant human cIAP1-BIR3 protein (Homo sapiens, UniProt Q13490); assay: Recombinant human c-IAP1-BIR3 biochemical assay (HTRF, peptide displacement); conditions: 1.2 nM cIAP1-BIR3, 3 nM AbuRPF-K(5-Fam)-NH2 peptide, read-out: Protein binding IC50 (nM) c-IAP1
T2 construct: recombinant human cIAP1-BIR3 protein; purchased Reaction biology APT-11-370
Summary of the method: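 1.2 nM cIAP1-BIR3 preincubated 1 h at room temperature with compound (10 points, 4-fold, top 10 uM) in 20 mM HEPES pH 7.5, 50 mM NaCl, 1 mM DTT; 3 nM AbuRPF-K(5-Fam)-NH2 then added for 1 h, then anti-6His Tb cryptate for 1 h. 520/490 nm ratio; IC50 by four-parameter logistic fit.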

[3] = target: T3, recombinant human cIAP2-BIR3 protein (Homo sapiens, UniProt Q13489); assay: Recombinant human c-IAP2-BIR3 biochemical assay (HTRF, peptide displacement); conditions: 3.7 nM cIAP2-BIR3, 3.7 nM AbuRPF-K(5-Fam)-NH2 peptide, read-out: Protein binding IC50 (nM) c-IAP2
T3 construct: recombinant human cIAP2-BIR3 protein; purchased Reaction biology APT-11-372
Summary of the method: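 3.7 nM protein pre-incubated 1 h at room temperature with compounds (top 10 uM, 4-fold, 10 points) in 20 mM HEPES pH 7.5, 50 mM NaCl, 0.005% Tween-20, 1 mM DTT. Then 3.7 nM AbuRPF-K(5-Fam)-NH2 for 1 h, then anti-6His Tb cryptate 1 h. IC50 from 520/490 nm HTRF ratio, four-parameter logistic fit.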

T1 sequence (P98170 241-356 limits assumed): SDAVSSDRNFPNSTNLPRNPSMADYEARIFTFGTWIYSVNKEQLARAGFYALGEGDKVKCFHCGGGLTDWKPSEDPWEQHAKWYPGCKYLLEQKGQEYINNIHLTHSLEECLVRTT
T3 sequence (Q13489 238-349 limits assumed): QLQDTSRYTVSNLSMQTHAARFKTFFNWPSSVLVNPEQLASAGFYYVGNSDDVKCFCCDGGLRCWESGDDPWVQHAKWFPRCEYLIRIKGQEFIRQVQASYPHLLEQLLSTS
T2 sequence (Q13490 253-363 limits assumed): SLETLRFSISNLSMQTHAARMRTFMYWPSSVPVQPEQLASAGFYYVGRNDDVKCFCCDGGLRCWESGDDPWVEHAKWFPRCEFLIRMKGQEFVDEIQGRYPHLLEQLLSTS

Structure (SMILES)	IC50 [1]	IC50 [2]	IC50 [3]
C[C@@H]1CN(CC(=O)N2c3cc(Cc4ccc(F)cc4)c(CN4CC(O)C4)nc3OC[C@@H]2C)[C@@H](CN2[C@H](C)COC[C@H]2C)CN1 [Compound 114]	7.7 nM	0.19 nM	0.36 nM
C[C@@H]1CN(CC(=O)N2c3cc(Cc4ccc(F)cc4)c(NC4CC4)nc3OC[C@@H]2C)[C@@H](CN2[C@H](C)COC[C@H]2C)CN1 [Compound 110]	11.9 nM	0.36 nM	0.75 nM
C[C@@H]1CN(CC(=O)N2c3cc(Cc4ccc(F)cc4)c(C(=O)NC4CC4)nc3OC[C@@H]2C)[C@@H](CN2[C@H](C)COC[C@H]2C)CN1 [Example 63]	3.2 nM	0.17 nM	0.23 nM
C[C@@H]1CN(CC(=O)N2c3cc(Cc4ccc(F)cc4)c(C(=O)NCC4CC4)nc3OC[C@@H]2C)[C@@H](CN2[C@H](C)COC[C@H]2C)CN1 [Example 70, (S)—N-(cyclopropylmethyl)-1-(2-((2R,5R)-2-(((3R,5R)-3,5-dimethylmorpholino)methyl)-5-methylpiperazin-1-yl)acetyl)-7-(4-fluorobenzyl)-2-methyl-2,3-dihydro-1H-pyrido[2,3-b][1,4]oxazine-6-carboxamide]	1.9 nM	0.16 nM	0.27 nM
COCCOCCNC(=O)c1nc2c(cc1Cc1ccc(F)cc1)N(C(=O)CN1C[C@@H](C)NC[C@@H]1CN1[C@H](C)COC[C@H]1C)[C@@H](C)CO2 [Example 67, (S)-1-(2-((2R,5R)-2-(((3R,5R)-3,5-dimethylmorpholino)methyl)-5-methylpiperazin-1-yl)acetyl)-7-(4-fluorobenzyl)-N-(2-(2-methoxyethoxy)ethyl)-2-methyl-2,3-dihydro-1H-pyrido[2,3-b][1,4]oxazine-6-carboxamide]	8.2 nM	0.29 nM	0.56 nM
C[C@@H]1CN(CC(=O)N2CCOc3ncc(Cc4ccc(F)cc4)cc32)[C@@H](CN2C[C@H]3C[C@@H]2CO3)CN1 [Compound 14]	122 nM	3.6 nM	9.8 nM
CCNc1nc2c(cc1Cc1ccc(F)cc1)N(C(=O)CN1C[C@@H](C)NC[C@@H]1CN1[C@H](C)COC[C@H]1C)[C@@H](C)CO2 [Compound 111, 2-((2R,5R)-2-(((3R,5R)-3,5-dimethylmorpholino)methyl)-5-methylpiperazin-1-yl)-1-((S)-6-(ethylamino)-7-(4-fluorobenzyl)-2-methyl-2,3-dihydro-1H-pyrido[2,3-b][1,4]oxazin-1-yl)ethan-1-one]	13.9 nM	0.25 nM	0.7 nM
COC[C@H]1COc2ncc(Cc3ccc(F)cc3)cc2N1C(=O)CN1C[C@@H](C)NC[C@@H]1CN1[C@H](C)COC[C@H]1C [Compound 34, 2-((2R,5R)-2-(((3R,5R)-3,5-dimethylmorpholino)methyl)-5-methylpiperazin-1-yl)-1-((S)-7-(4-fluorobenzyl)-2-(methoxymethyl)-2,3-dihydro-1H-pyrido[2,3-b][1,4]oxazin-1-yl)ethan-1-one]	23 nM	0.25 nM	0.32 nM
C[C@@H]1CN(CC(=O)N2c3cc(Cc4ccc(F)cc4)c(NCC(F)(F)F)nc3OC[C@@H]2C)[C@@H](CN2[C@H](C)COC[C@H]2C)CN1 [Compound 112, 2-((2R,5R)-2-(((3R,5R)-3,5-dimethylmorpholino)methyl)-5-methylpiperazin-1-yl)-1-((S)-7-(4-fluorobenzyl)-2-methyl-6-((2,2,2-trifluoroethyl)amino)-2,3-dihydro-1H-pyrido[2,3-b][1,4]oxazin-1-yl)ethan-1-one]	4.6 nM	0.34 nM	0.63 nM
C[C@@H]1CN(CC(=O)N2c3cc(Cc4ccc(F)cc4)cnc3OC[C@@H]2C2CC2)[C@@H](CN2CCOC[C@H]2C)CN1 [Compound 26, 1-((S)-2-cyclopropyl-7-(4-fluorobenzyl)-2,3-dihydro-1H-pyrido[2,3-b][1,4]oxazin-1-yl)-2-((2R,5R)-5-methyl-2-(((R)-3-methylmorpholino)methyl)piperazin-1-yl)ethan-1-one]	16 nM	0.48 nM	1.13 nM
CCOc1nc2c(cc1Cc1ccc(F)cc1)N(C(=O)CN1C[C@@H](C)NC[C@@H]1CN1[C@H](C)COC[C@H]1C)[C@@H](C)CO2 [Compound 87]	3.3 nM	0.18 nM	0.23 nM
CC(C)OC[C@@H]1COCCN1C[C@H]1CN[C@H](C)CN1CC(=O)N1c2cc(Cc3ccc(F)cc3)c(CO)nc2OC[C@@H]1C [Compound 59]	7.8 nM	0.26 nM	0.67 nM
C[C@@H]1CN(CC(=O)N2c3cc(Cc4ccc(F)cc4)c(C(=O)NC[C@H]4CCCO4)nc3OC[C@@H]2C)[C@@H](CN2[C@H](C)COC[C@H]2C)CN1 [Compound 94, (S)-1-(2-((2R,5R)-2-(((3R,5R)-3,5-dimethylmorpholino)methyl)-5-methylpiperazin-1-yl)acetyl)-7-(4-fluorobenzyl)-2-methyl-N—(((R)-tetrahydrofuran-2-yl)methyl)-2,3-dihydro-1H-pyrido[2,3-b][1,4]oxazine-6-carboxamide]	3.3 nM	0.16 nM	0.28 nM
C[C@@H]1CN(CC(=O)N2c3cc(Cc4ccc(F)cc4)c(C(N)=O)nc3OC[C@@H]2C)[C@@H](CN2CCOCC23CC3)CN1 [Compound 88, (S)-1-(2-((2R,5R)-2-((7-oxa-4-azaspiro[2.5]octan-4-yl)methyl)-5-methylpiperazin-1-yl)acetyl)-7-(4-fluorobenzyl)-2-methyl-2,3-dihydro-1H-pyrido[2,3-b][1,4]oxazine-6-carboxamide]	12.4 nM	0.35 nM	0.63 nM
C[C@@H]1CN(CC(=O)N2c3cc(Cc4ccc(F)cc4)cnc3OC[C@@H]2C2CCCCC2)[C@@H](CN2[C@H](C)COC[C@H]2C)CN1 [Compound 43, 1-((S)-2-cyclohexyl-7-(4-fluorobenzyl)-2,3-dihydro-1H-pyrido[2,3-b][1,4]oxazin-1-yl)-2-((2R,5R)-2-(((3R,5R)-3,5-dimethylmorpholino)methyl)-5-methylpiperazin-1-yl)ethan-1-one]	23 nM	0.23 nM	0.27 nM
C[C@@H]1CN(CC(=O)N2c3cc(Cc4ccc(F)cc4)c(C(=O)NCCN(C)C)nc3OC[C@@H]2C)[C@@H](CN2[C@H](C)COC[C@H]2C)CN1 [Compound 97, (S)—N-(2-(dimethylamino)ethyl)-1-(2-((2R,5R)-2-(((3R,5R)-3,5-dimethylmorpholino)methyl)-5-methylpiperazin-1-yl)acetyl)-7-(4-fluorobenzyl)-2-methyl-2,3-dihydro-1H-pyrido[2,3-b][1,4]oxazine-6-carboxamide]	12.5 nM	0.27 nM	0.51 nM
CC[C@@H]1COCCN1C[C@H]1CN[C@H](C)CN1CC(=O)N1c2cc(Cc3ccc(F)cc3)c(CO)nc2OC[C@@H]1C [Compound 51, 2-((2R,5R)-2-(((R)-3-ethylmorpholino)methyl)-5-methylpiperazin-1-yl)-1-((S)-7-(4-fluorobenzyl)-6-(hydroxymethyl)-2-methyl-2,3-dihydro-1H-pyrido[2,3-b][1,4]oxazin-1-yl)ethan-1-one]	9.2 nM	0.3 nM	0.67 nM
